Measured values taken from PubChem BioAssay AID2305 (GlaxoSmithKline (GSK), 2010).

test system: P. falciparum 3D7 growth, pLDH absorbance; assay: blood-stage malaria parasite growth potency – strain 3D7, dose response (AID 2305)

Question: For `COc1ccc2nccc([C@@H](O)CN3CCC(NCc4nc5ccccc5s4)CC3)c2c1`, which IC50 is on record?
Answer: The IC50 was 930 nM.

Question: With `COc1cc(NC(=O)/C=C/c2cc(F)cc(F)c2F)cc(OCCN2CCCCC2)c1` as the compound, how does the IC50 read?
Answer: Its IC50 is 150 nM.

Question: `COc1ccc(-c2csc(N(CCCN(C)C)C(=O)c3cc4c(C)nn(-c5ccccc5)c4s3)n2)cc1` was tested. Which IC50 did it give?
Answer: Its IC50 is 620 nM.

Question: For `COc1ccc(C2CC(c3ccccc3O)=NN2C(=O)c2ccco2)cc1OC` (centres undefined), which IC50 is on record?
Answer: The IC50 was 950 nM.

Question: Which IC50 does the source give for `CC(C)CCN1CCC(Oc2ccc(NC(=O)c3ccc(F)cc3)cc2Cl)CC1` here?
Answer: The IC50 was 720 nM.

Question: `Cc1cccc2[nH]c(-c3ccc(-c4cccc(CN5CCN(c6ccc(C#N)cn6)CC5)c4)s3)nc12` was tested. Which IC50 did it give?
Answer: Its IC50 is 1420 nM.

Question: How did the IC50 turn out when `CCCCn1c(Sc2ccc(C#N)c([N+](=O)[O-])c2)nnc1-c1cccc(Cl)c1` was run?
Answer: The IC50 was 760 nM.

Question: How did the IC50 turn out when `CC(=O)c1ccc(-c2ccc(C(=O)NCCCCN3CCC(c4ccc5c(c4OCC(N)=O)CCCC5)CC3)cc2)s1` was run?
Answer: The IC50 was 890 nM.

Question: `O=C(Nc1ccccc1Oc1ccccc1)NC1CCN(c2ccnc3cc(Cl)ccc23)C1` (centres undefined) was tested. Which IC50 did it give?
Answer: The IC50 was 170 nM.

Question: How did the IC50 turn out when `COc1cc(NC(=O)c2ccc3c(=O)n(Cc4ccccc4)c(=S)[nH]c3c2)cc(OC)c1OC` was run?
Answer: Its IC50 is 740 nM.

Question: How did the IC50 turn out when `CCOc1ccc2nc(C)cc(NN=Cc3cccc([N+](=O)[O-])c3)c2c1` was run?
Answer: Its IC50 is 660 nM.

Question: Which IC50 does the source give for `Cc1ccccc1C1CCN(C2CCC(NC(=O)/C=C/c3c[nH]c4ccccc34)CC2)CC1` (centres undefined) here?
Answer: Its IC50 is 810 nM.

Question: How did the IC50 turn out when `CN1CCC(c2c[nH]c3ccc(NC(=O)Nc4ccc(-c5ccncc5)c(Cl)c4Cl)cc23)CC1` was run?
Answer: Its IC50 is 700 nM.

Question: For `COc1ccc2nc(-c3ccccc3)cc(NCCCNc3cc(-c4ccccc4)nc4ccc(OC)cc34)c2c1`, which IC50 is on record?
Answer: Its IC50 is 120 nM.

Question: Which IC50 does the source give for `O=C(Nc1ccc(C(F)(F)F)cc1)c1cccc(S(=O)(=O)NC2CCN(CC3CCCCC3)C2)c1` (centres undefined) here?
Answer: The IC50 was 690 nM.

Question: Which IC50 does the source give for `c1cc(CN2CCCCC2)cc(-c2ccc(-c3nc4ccccc4[nH]3)cc2)c1` here?
Answer: The IC50 was 890 nM.

Question: Which IC50 does the source give for `O=C(Nc1ccc(-c2cccc(-c3nc4ccc(F)cc4[nH]3)c2)cc1)Nc1ccc(F)c(F)c1F` here?
Answer: Its IC50 is 740 nM.

Question: For `CC(=O)Nc1ccc(OCCN(Cc2ccccc2OC(F)(F)F)c2ccc(C(F)(F)F)c(C#N)c2)c(Cl)c1`, which IC50 is on record?
Answer: The IC50 was 460 nM.

Question: `O=C(Nc1ccc(C(=O)N2CCN(CCN3CCN(c4cccc(C(F)(F)F)c4)CC3)CC2)cc1)c1ccc(OC(F)(F)F)cc1` was tested. Which IC50 did it give?
Answer: The IC50 was 690 nM.

Question: How did the IC50 turn out when `CC1(C)[C@H]2CC[C@@H](CNc3nc(NCCc4cnc[nH]4)nc(Nc4ccc5c(c4)OCO5)n3)[C@@H]1C2` was run?
Answer: Its IC50 is 540 nM.

Question: How did the IC50 turn out when `CCOC(=O)NC1=NC(C)(C)N(OCc2ccc(Cl)c(Cl)c2)C(N)=N1` was run?
Answer: The IC50 was 40 nM.

Question: With `Cc1cc2nc(-c3ccc(/C=C/C(=O)NCc4ccc(Cl)c(Cl)c4)cc3)[nH]c2cc1C` as the compound, how does the IC50 read?
Answer: Its IC50 is 820 nM.

Question: For `CCCCCCCNCc1c(O)ccc2c(CNCCCCCCC)c(O)ccc12`, which IC50 is on record?
Answer: The IC50 was 150 nM.

Question: Which IC50 does the source give for `COC(=O)c1ccc2nc(-c3ccc(C(=O)NCc4ccc(Cl)c(Cl)c4)cc3)[nH]c2c1` here?
Answer: Its IC50 is 850 nM.

Question: `CC(=O)Nc1cccc(CNc2cc(C)nc(Nc3ccc(C)cc3)n2)c1` was tested. Which IC50 did it give?
Answer: Its IC50 is 1140 nM.

Question: With `CS(=O)(=O)n1c(CN2CCN(c3ncc(C(F)(F)F)cc3Cl)CC2)nc2ccccc21` as the compound, how does the IC50 read?
Answer: Its IC50 is 1060 nM.

Question: For `O=C(Nc1cccc(CN2CCCN(Cc3ncc[nH]3)CC2)c1)c1ccc2ccccc2c1`, which IC50 is on record?
Answer: The IC50 was 630 nM.

Question: Which IC50 does the source give for `CC(=O)Nc1ccc(C2NC(=O)NC(c3ccccc3)=C2c2nc3ccccc3s2)cc1` (centres undefined) here?
Answer: The IC50 was 1110 nM.

Question: Which IC50 does the source give for `COc1ccc(-c2ccc(NC(=O)c3cccc(C#N)c3)cc2)cc1CN1CCCC(C(N)=O)C1` (centres undefined) here?
Answer: The IC50 was 860 nM.

Question: Which IC50 does the source give for `CS(=O)(=O)CCNCc1nc(-c2ccc3c(=O)[nH]cnc3c2)cs1` here?
Answer: Its IC50 is 1010 nM.

Question: For `NC(=NCc1ccccc1Cl)NCCc1c[nH]c2ccccc12`, which IC50 is on record?
Answer: The IC50 was 110 nM.

Question: `O=C(Nc1ccc(F)cc1)N1CCCN(c2ccnc3cc(Cl)ccc23)CC1` was tested. Which IC50 did it give?
Answer: The IC50 was 790 nM.

Question: With `CN(c1ncc(-c2cccc(CNCc3ccccc3O)c2)cn1)C1CCCCC1` as the compound, how does the IC50 read?
Answer: Its IC50 is 820 nM.

Question: How did the IC50 turn out when `N#Cc1ccc2c(c1)CCN(CCC1CCC(NC(=O)/C=C/c3ccc(F)c4ccccc34)CC1)CC2` (centres undefined) was run?
Answer: The IC50 was 840 nM.

Question: `N#Cc1ccc(CN2CCC(Oc3ccc(NC(=O)c4cccs4)cc3)CC2)cc1` was tested. Which IC50 did it give?
Answer: The IC50 was 1030 nM.

Question: `COc1ccc(C(=O)NCCCCN2CCC(c3ccc4c(c3OC)CCCC4)CC2)cc1-c1ccc(C(F)(F)F)cc1` was tested. Which IC50 did it give?
Answer: Its IC50 is 750 nM.

Question: How did the IC50 turn out when `COc1cc(Cc2cnc(N)nc2N)cc(OCCCCC2SC(=O)NC2=O)c1Br` (centres undefined) was run?
Answer: Its IC50 is 120 nM.

Question: Which IC50 does the source give for `Cc1cccc2[nH]c(-c3ccc(-c4cccc(CN5CCN(c6ccncc6)CC5)c4)s3)nc12` here?
Answer: Its IC50 is 130 nM.

Question: Which IC50 does the source give for `CC(=O)NCCNc1nccc(N2CCc3ncnc(Nc4ccc(OCc5cccc(F)c5)c(Cl)c4)c3C2)n1` here?
Answer: Its IC50 is 130 nM.

Question: For `CC(=O)Oc1cc(C(=O)Nc2ccc(Cl)cc2)cc2ccccc12`, which IC50 is on record?
Answer: The IC50 was 860 nM.

Question: With `O=C(Nc1ccc(N2CCN(Cc3cccc(F)c3)CC2)cc1)c1cccs1` as the compound, how does the IC50 read?
Answer: Its IC50 is 680 nM.

Question: How did the IC50 turn out when `CCCCNC(=O)[C@H](CC1CCCCC1)NC(=O)c1ccc(O)c(-c2cccc(C(F)(F)F)c2)c1` was run?
Answer: Its IC50 is 770 nM.

Question: `Cc1ccc2cc(NC(=O)CCCCCCCON3C(N)=NC(N)=NC34CCCCC4)ccc2n1` was tested. Which IC50 did it give?
Answer: Its IC50 is 90 nM.

Question: How did the IC50 turn out when `O=C(NCCN1CCOCC1)c1csc(C2CCCN(C(=O)c3ccc(O)c(-c4cc(Cl)cc(Cl)c4)c3)C2)n1` (centres undefined) was run?
Answer: Its IC50 is 1030 nM.

Question: How did the IC50 turn out when `O=C(NCCc1ccccc1)c1cc(-c2cccnc2)cnc1NCC1CC1` was run?
Answer: Its IC50 is 850 nM.

Question: With `O=C(Nc1ccc(-c2cccc(CN3CCC(O)CC3)c2)cc1)c1cccc(Cl)c1` as the compound, how does the IC50 read?
Answer: Its IC50 is 830 nM.

Question: How did the IC50 turn out when `Cc1cc2ccccc2n1CC(=O)N1CC(C(=O)N2CCCCC2)Oc2ccccc21` (centres undefined) was run?
Answer: Its IC50 is 900 nM.

Question: Which IC50 does the source give for `Cc1ccc(CN2CCCN(Cc3cccc(NC(=O)c4cc5ccccc5s4)c3)CC2)cc1` here?
Answer: Its IC50 is 1190 nM.

Question: For `CCC(C)OC(=O)C1=C(C)NC2=C(C(=O)CC(c3ccc(OC)c(OC)c3)C2)C1c1ccc(O)cc1` (centres undefined), which IC50 is on record?
Answer: Its IC50 is 220 nM.

Question: How did the IC50 turn out when `Cc1nc(N)nc(N)c1C#CC1CCCC1` was run?
Answer: The IC50 was 770 nM.

Question: With `CCOc1cc(C(=O)Nc2ccc3nc(N4CCN(C)CC4)cc(C)c3c2)cc(OCC)c1OCC` as the compound, how does the IC50 read?
Answer: Its IC50 is 850 nM.

Question: Which IC50 does the source give for `CC(Cc1ccc(SC(C)C)cc1)NCC(O)c1cccc(Cl)c1` (centres undefined) here?
Answer: The IC50 was 830 nM.

Question: With `CN1CCN(Cc2ccc(-c3ccc4c(Nc5cc(O)c(Cl)cc5F)ccnc4c3)o2)CC1` as the compound, how does the IC50 read?
Answer: Its IC50 is 110 nM.

Question: `COc1cccc(Nc2nc(C)cc(NCc3ccc(-c4c(C)noc4C)cc3)n2)c1` was tested. Which IC50 did it give?
Answer: Its IC50 is 880 nM.

Question: `CCN1CCC(N(Cc2ccc(-c3ccc(C(F)(F)F)cc3)cc2)C(=O)Cn2c(SCc3cccc(F)c3F)cc(=O)c3ccccc32)C1` (centres undefined) was tested. Which IC50 did it give?
Answer: The IC50 was 880 nM.

Question: `Clc1ccc(-c2cc(-c3csc(Nc4ccncc4)n3)on2)cc1` was tested. Which IC50 did it give?
Answer: Its IC50 is 130 nM.

Question: `CCCCCN1CCCN(Cc2cccc(NC(=O)c3ccc(Cl)c(Cl)c3)c2)CC1` was tested. Which IC50 did it give?
Answer: Its IC50 is 930 nM.

Question: `CC[C@H]1CN2CC[C@H]1C[C@H]2[C@H](O)c1ccnc2ccc(C#N)cc12` was tested. Which IC50 did it give?
Answer: Its IC50 is 150 nM.

Question: How did the IC50 turn out when `O=C(Nc1cccc(C(F)(F)F)c1)Nc1cc(F)c(F)cc1Cl` was run?
Answer: Its IC50 is 1960 nM.

Question: With `O=C(N[C@@H](Cc1ccccc1)C(=O)NC1CCCCC1)c1ccc(O)c(-c2cccc(C(F)(F)F)c2)c1` as the compound, how does the IC50 read?
Answer: Its IC50 is 810 nM.

Question: For `CN1CCN(CCCN(Cc2ccc(-c3cccc(CNC4CCCC4)c3)cc2)C(=O)Nc2ccccc2)CC1`, which IC50 is on record?
Answer: Its IC50 is 1120 nM.

Question: For `CC(Cc1ccc(CNC(=O)c2ccc(CC(C)NCCc3cccc(Cl)c3)cc2)cc1)NCCc1cccc(Cl)c1` (centres undefined), which IC50 is on record?
Answer: The IC50 was 700 nM.

Question: For `CCCn1c(Sc2ccc(C#N)c([N+](=O)[O-])c2)nnc1-c1cc(OC)cc(OC)c1`, which IC50 is on record?
Answer: The IC50 was 720 nM.

Question: For `COc1ccc(S(=O)(=O)N2CCC3(CC2)OCC(=O)NC3c2ccc(Cl)c(Cl)c2)cc1` (centres undefined), which IC50 is on record?
Answer: The IC50 was 640 nM.

Question: `NC1CCN(Cc2ccc(-c3cccc(-c4nc5ccc(F)cc5[nH]4)c3)cc2)C1` (centres undefined) was tested. Which IC50 did it give?
Answer: The IC50 was 760 nM.

Question: With `Oc1c(C(Nc2nc3ccccc3s2)c2ccccc2)ccc2cccnc12` (centres undefined) as the compound, how does the IC50 read?
Answer: The IC50 was 650 nM.

Question: For `COc1ccc(-c2ccc(NC(=O)c3ccc(C#N)cc3)cc2)cc1CN1CCCC1`, which IC50 is on record?
Answer: The IC50 was 870 nM.

Question: How did the IC50 turn out when `C=C[C@@H]1CN2CC[C@H]1C[C@H]2[C@H](O)c1cc(-c2ccc(Cl)cc2)nc2ccc(OC)cc12` was run?
Answer: Its IC50 is 30 nM.

Question: How did the IC50 turn out when `COc1cc2nc(N3CCN(C(=O)c4c(Cl)nsc4-c4ccccc4Cl)CC3)nc(N)c2cc1OC` was run?
Answer: The IC50 was 530 nM.
